Drawing on BindingDB's records for patent US20240083900 (Biogen Ma, 2024), this text covers IC50 for 1 compound.

SMILES strings stand for the structures.

The assay has as its target Tyrosine-protein kinase BTK (Homo sapiens, UniProt Q06187). Description: In Vitro BTK Kinase Assay: Btk-PolyGAT-LS Assay. Here is the method: The purpose of the BTK in vitro assay is to determine compound potency against BTK through the measurement of IC50. […] For a typical assay, a 24 μL aliquot of a ATP/peptide master mix (final concentration; ATP 10 μM, polyGAT 100 nM) in kinase buffer (10 mM Tris-HCl pH 7.5, 10 mM MgCl2, 200 μM Na3PO4, 5 mM DTT, 0.01% Triton X-100, and 0.2 mg/ml casein) is added to each well. […] The assay is incubated for 30 minutes before being stopped with 28 μL of a 50 mM EDTA solution. […] The plate is covered and incubated for 45 minutes at room temperature.

Sequence of Tyrosine-protein kinase BTK (Q06187 whole entry): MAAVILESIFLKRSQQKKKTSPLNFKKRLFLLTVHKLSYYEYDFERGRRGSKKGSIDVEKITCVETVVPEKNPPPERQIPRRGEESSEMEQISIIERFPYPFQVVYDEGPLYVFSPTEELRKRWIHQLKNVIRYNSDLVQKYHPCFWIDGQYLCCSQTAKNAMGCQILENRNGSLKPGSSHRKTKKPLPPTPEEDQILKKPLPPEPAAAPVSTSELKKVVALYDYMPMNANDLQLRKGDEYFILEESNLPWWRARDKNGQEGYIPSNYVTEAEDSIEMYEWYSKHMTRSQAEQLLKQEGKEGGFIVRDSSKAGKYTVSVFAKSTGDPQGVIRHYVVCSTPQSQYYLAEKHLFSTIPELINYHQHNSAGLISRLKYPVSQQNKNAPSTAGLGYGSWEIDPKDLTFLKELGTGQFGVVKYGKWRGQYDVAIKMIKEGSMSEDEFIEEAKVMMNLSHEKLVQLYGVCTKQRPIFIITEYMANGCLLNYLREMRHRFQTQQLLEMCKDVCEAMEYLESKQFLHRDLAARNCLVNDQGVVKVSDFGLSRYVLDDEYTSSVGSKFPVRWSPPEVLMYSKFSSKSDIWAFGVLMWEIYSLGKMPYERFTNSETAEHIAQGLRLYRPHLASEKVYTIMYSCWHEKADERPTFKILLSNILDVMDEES

Broadly, the IC50 is the concentration needed to halve the response being measured. A high value points to lower potency. For `Cn1cc(-c2cn3nccc3c(OC3CCN(C(=O)/C=C\CCl)CC3)n2)cn1` [US20240083900, Example 8], the IC50 was below 1 nM.
